# Laboratory results taken from ChEMBL document CHEMBL5236621, “Synthesis and biological evaluation of N-(benzene sulfonyl)acetamide derivatives as anti-inflammatory and analgesic agents with COX-2/5-LOX/TRPV1 multifunctional inhibitory activity” (Bioorg Med Chem Lett, 2023).
# How the values were obtained:
# [1] = molecular target: Prostaglandin G/H synthase 2
# [2] = molecular target: Transient receptor potential cation channel subfamily V member 1 (Homo sapiens, UniProt Q8NER1); experiment: Inhibition of TRPV1 (unknown origin)
# [3] = molecular target: T1, Polyunsaturated fatty acid 5-lipoxygenase (Homo sapiens, UniProt P09917); experiment: Inhibition of 5-LOX (unknown origin)
# T1 sequence (P09917 whole entry): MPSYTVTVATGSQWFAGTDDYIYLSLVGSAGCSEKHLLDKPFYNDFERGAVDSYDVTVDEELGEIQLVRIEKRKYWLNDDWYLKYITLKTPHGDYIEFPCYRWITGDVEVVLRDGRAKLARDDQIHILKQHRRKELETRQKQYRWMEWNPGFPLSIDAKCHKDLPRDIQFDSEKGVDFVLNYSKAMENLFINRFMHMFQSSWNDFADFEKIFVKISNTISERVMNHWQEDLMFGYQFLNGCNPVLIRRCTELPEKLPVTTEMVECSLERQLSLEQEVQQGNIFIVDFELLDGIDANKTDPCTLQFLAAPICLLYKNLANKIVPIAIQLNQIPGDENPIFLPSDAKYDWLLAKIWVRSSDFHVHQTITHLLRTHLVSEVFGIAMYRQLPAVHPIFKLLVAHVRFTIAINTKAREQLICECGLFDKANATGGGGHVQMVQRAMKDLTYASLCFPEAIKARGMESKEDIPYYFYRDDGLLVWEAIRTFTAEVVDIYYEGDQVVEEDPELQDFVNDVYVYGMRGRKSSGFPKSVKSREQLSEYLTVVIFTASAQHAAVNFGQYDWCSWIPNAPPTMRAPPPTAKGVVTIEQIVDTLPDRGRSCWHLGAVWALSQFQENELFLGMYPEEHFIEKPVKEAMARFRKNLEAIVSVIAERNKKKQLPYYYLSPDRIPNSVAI
# [4] = Apparent clearance in Sprague-Dawley rat at 1 mg/kg, iv; format: ADME, organism-based; conditions: in vivo
# [5] = Tmax in Sprague-Dawley rat at 10 mg/kg, IG; format: ADME, organism-based; conditions: in vivo, po
# Mus musculus [6] = species on record: Mus musculus; experiment: Analgesic activity in formalin-induced mouse pain model assessed as time consumed for nociceptive behavior by measuring licking time; format: functional
# Mus musculus [7] = species on record: Mus musculus; experiment: Analgesic activity in formalin-induced mouse pain model assessed as reduction in immediate response by measuring licking time; format: functional
# [8] = Bioavailability in Sprague-Dawley rat at 1 mg/kg, iv; format: ADME, organism-based; conditions: in vivo
# [9] = Cmax in Sprague-Dawley rat at 10 mg/kg, IG; format: ADME, organism-based; parameters: dose 10 mg/kg, route ig; conditions: in vivo, po
# Mus musculus [10] = experiment: Antiinflammatory activity against capsaicin-induced mouse ear edema model assessed as decrease in ear thickness at 20 mg/kg relative to control; format: functional
# Sequence of Transient receptor potential cation channel subfamily V member 1 (Q8NER1 whole entry): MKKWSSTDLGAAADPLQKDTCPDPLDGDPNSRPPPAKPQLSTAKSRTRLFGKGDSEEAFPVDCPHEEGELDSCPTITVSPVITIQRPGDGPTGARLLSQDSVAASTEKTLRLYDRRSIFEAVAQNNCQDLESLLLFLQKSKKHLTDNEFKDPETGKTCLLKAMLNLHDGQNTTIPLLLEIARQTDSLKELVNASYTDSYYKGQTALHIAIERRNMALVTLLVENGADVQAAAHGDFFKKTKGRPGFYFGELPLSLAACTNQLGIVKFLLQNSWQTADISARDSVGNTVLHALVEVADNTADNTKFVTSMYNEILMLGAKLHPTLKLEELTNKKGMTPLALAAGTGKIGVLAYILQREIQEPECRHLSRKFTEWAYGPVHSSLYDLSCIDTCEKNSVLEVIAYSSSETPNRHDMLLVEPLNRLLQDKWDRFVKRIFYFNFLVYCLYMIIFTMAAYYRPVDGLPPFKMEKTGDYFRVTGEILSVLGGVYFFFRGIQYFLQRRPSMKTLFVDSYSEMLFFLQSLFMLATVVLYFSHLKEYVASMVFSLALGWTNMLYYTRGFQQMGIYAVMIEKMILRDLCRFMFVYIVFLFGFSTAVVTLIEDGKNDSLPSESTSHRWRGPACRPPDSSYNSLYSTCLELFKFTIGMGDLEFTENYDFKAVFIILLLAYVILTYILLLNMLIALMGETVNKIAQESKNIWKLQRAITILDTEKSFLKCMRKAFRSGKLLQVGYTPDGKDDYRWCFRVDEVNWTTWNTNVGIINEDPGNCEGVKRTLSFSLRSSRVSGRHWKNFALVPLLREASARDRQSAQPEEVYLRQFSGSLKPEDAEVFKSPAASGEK
IC50 [1] [µM],IC50 [2] [µM],IC50 [3] [µM],Compound,clearance [4] [mL/min/kg],Tmax [5] [h],Time (Mus musculus [6]) [s],Time (Mus musculus [7]) [min],bioavailability [8] [%],Cmax [9] [ng/mL],inhibition in vivo at 20 mg/kg (Mus musculus [10]) [%]
0.37,> 10,1.42,Cc1ccc(-c2cc(C(F)(F)F)nn2-c2ccc(S(=O)(=O)NC(=O)CCCCC3CCSS3)cc2)cc1 (stereo unspecified),–,–,–,–,–,–,–
0.025,1.03,0.52,Cc1ccc(-c2cc(C(F)(F)F)nn2-c2ccc(S(=O)(=O)NC(=O)C(C)c3ccc(CC(C)C)cc3)cc2)cc1 (stereo unspecified),–,–,–,–,–,–,–
0.076,–,0.12,Cc1ccc(-c2cc(C(F)(F)F)nn2-c2ccc(S(=O)(=O)NC(=O)c3ccccc3)cc2)cc1,–,–,–,–,–,–,–
0.035,–,0.92,CCOC(=O)NS(=O)(=O)c1ccc(-n2nc(C(F)(F)F)cc2-c2ccc(C)cc2)cc1,–,–,–,–,–,–,–

# Further lines, the molecule ahead of its results:
Compound,IC50 [1] [µM],IC50 [2] [µM],IC50 [3] [µM],clearance [4] [mL/min/kg],Tmax [5] [h],Time (Mus musculus [6]) [s],Time (Mus musculus [7]) [min],bioavailability [8] [%],Cmax [9] [ng/mL],inhibition in vivo at 20 mg/kg (Mus musculus [10]) [%]
COc1cc(C(=O)[N-]S(=O)(=O)c2ccc(-n3nc(C(F)(F)F)cc3-c3ccc(C)cc3)cc2)ccc1[O-].[Na+].[Na+],0.011,–,0.46,3.24,4.5,85.5,0,96.8,5810,–
COc1cc(/C=C/C(=O)[N-]S(=O)(=O)c2ccc(-n3nc(C(F)(F)F)cc3-c3ccc(C)cc3)cc2)ccc1[O-].[Na+].[Na+],0.023,0.14,0.31,8.64,–,–,–,13.3,–,–
Cc1ccc(-c2cc(C(F)(F)F)nn2-c2ccc(S(N)(=O)=O)cc2)cc1 [CELECOXIB],–,> 10,> 10,–,–,–,–,–,–,48.8
